Measurements from publication PMC6026847, “Synthesis and Evaluation of the First Fluorescent Antagonists of the Human P2Y2 Receptor Based on AR-C118925” (Journal of Medicinal Chemistry, 2018).
pEC50: −log10 of the molar value. Like-named read-outs stand apart in the source and are kept apart here.

Tests used:
hP2Y2R [1] = molecular target: T1, hP2Y2R (Homo sapiens, UniProt P41231); assay: Confocal microscopy of fluorescent ligands on 1321N1 astrocytoma cells expressing hP2Y2R; assay type: cell-based; settings: for membrane-specific fluorescence after pretreatment with 1: 100 nM fluorescent ligand plus 10 μM 1, 30 min at 37 °C; for confocal imaging: fluorescence localisation: 100 nM fluorescent ligand, 1321N1 astrocytoma cells expressing hP2Y2R
T1 construct: The 1321N1 cells expressing wild-type P2Y2R (P2Y2R-1321N1) were gifted by Dr. Elizabeth Rosethorne; expressed in transfected cells; host or cells: 1321N1 astrocytoma cells (P2Y2R-1321N1), gifted
T1 sequence (P41231 whole entry): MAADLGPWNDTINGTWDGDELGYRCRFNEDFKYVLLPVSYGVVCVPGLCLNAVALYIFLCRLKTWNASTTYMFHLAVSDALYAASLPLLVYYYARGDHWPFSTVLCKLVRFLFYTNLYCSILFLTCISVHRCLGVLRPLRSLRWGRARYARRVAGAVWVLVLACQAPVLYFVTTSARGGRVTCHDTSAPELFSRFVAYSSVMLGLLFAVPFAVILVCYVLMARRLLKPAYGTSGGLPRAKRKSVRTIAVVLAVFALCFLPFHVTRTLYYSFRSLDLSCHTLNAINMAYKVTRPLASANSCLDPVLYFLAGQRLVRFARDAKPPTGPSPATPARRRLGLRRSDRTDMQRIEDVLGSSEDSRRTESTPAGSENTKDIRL
Protocol: The P2Y2R-1321N1 cells were grown to approximately 80% confluency on eight-well Labtek chambered cover glasses (Nunc Nalgene) in normal growth medium. The growth medium was removed and replaced with HBSS containing apyrase (1 U/mL) and either 1 (10 μM) or the vehicle, and the cells incubated for 30 min at 37 °C without CO2. The cells were then incubated with 97 or 98 at the required concentration for 10 min at room temperature prior to the collection of the single-equatorial confocal images. The images were obtained on a Zeiss LSM710 confocal microscope using a 40× c-Apochromat 1.2NA water-immersion objective. For 97, the images were collected using a 633 nm excitation wavelength and a 488/561/633 dichroic, and the emissions were collected through a 650LP filter. For 98, a 488 nm excitation wavelength was used with the same dichroic, and the emissions were collected using an LP575 filter. In each case, a pinhole diameter of 1 airy unit was used, and the laser power, gain, and offset were kept the same for all of the samples within each experiment. For both 97 and 98, the images presented are as representative of an individual experiment with matched conditions. Linear adjustments to the image brightness and contrast have been applied equally across all of the comparative images using Zen software in order to prepare the images for presentation.

hP2Y2R [2] = molecular target: T1, hP2Y2R; assay: Calcium-mobilization assay in P2Y2-1321N1 cells (antagonism of UTPγS); assay type: cell-based
NLuc-P2Y2R = molecular target: T2, NLuc-P2Y2R (Homo sapiens, UniProt P41231); assay: NanoBRET saturation binding in NLuc-P2Y2R 1321N1 astrocytoma cells; settings: for NanoBRET pKd: Table 4; for NanoBRET pKd / Kd: saturation binding curves, 1321N1 cells expressing NLuc-P2Y2R, mean ± SEM; for specific NanoBRET signal: fixed 10 μM fluorescent conjugate in presence or absence of 10 μM 1, among 78–91 (Figure S1)
T2 construct: expressed in transfected cells
T2 sequence (P41231 2-377 limits assumed): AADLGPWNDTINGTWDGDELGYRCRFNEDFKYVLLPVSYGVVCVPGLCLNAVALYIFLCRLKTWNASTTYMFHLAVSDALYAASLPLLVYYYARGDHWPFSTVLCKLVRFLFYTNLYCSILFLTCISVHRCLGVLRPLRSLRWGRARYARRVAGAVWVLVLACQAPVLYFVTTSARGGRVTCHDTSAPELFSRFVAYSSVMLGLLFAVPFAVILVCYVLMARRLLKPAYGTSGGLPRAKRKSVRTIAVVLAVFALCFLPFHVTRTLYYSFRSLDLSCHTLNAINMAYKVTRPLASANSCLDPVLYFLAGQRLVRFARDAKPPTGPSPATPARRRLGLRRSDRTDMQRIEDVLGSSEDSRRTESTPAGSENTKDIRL
Protocol: To determine whether any of these conjugates had affinities for P2Y2R and consequently if they could be used in NanoBRET binding assays, a 1321N1 astrocytoma cell line expressing recombinant P2Y2R tagged on its N-terminus with NLuc (NLuc-P2Y2R) was generated. […] These NLuc-P2Y2 cells were treated with increasing concentrations of 66–69 and then treated with the NLuc substrate, furimazine, before the resulting BRET signal was monitored. […] However, this did illustrate the power of using NanoBRET to monitor ligand binding to low-affinity receptors.
Nucleophilic displacement of the 2-chloro substituent of 43 by either tert-butyl 3-aminopropanoate or tert-butyl 6-aminohexanoate gave the corresponding tert-butyl esters (70 and 71). […] The carboxylic acids were generated from the tert-butyl esters via TFA-mediated hydrolysis and subsequently coupled with tert-butyl (2-aminoethyl)carbamate or tert-butyl (2-(2-aminoethoxy)ethyl)carbamate to generate the corresponding amides (74–77). The Boc protecting groups were removed using TFA, and the resulting amines were coupled with the appropriate commercially available BODIPY succinimidyl ester (SE), generating a small library of 14 fluorescent conjugates (78–91). These fluorescent conjugates were initially tested using the aforementioned NanoBRET binding assay at fixed concentrations of 10 μM in the presence or absence of 10 μM 1 (see Figure S1 in the Supporting Information).
The saturation and competition binding assays were performed according to the methodology of Stoddart.[18] Briefly, the assays were performed on stably transfected NLucP2Y2-1321N1 cells that had been seeded 24 h prior to the experiment in white Thermo Scientific Matrix 96-well microplates. The medium in each well was removed and replaced with HBSS containing apyrase (1 U/mL) and the required concentration of the fluorescent ligand with or without the competing ligand. Upon the addition of the fluorescent ligand, the cells were incubated for 1 h at 37 °C without CO2. The NLuc substrate, furimazine (Promega), was then added to a final concentration of 10 μM, and the plate was incubated for a further 5 min at 37 °C without CO2. The luminescence and resulting BRET were measured using a PHERAstar FS plate reader (BMG Labtech) at room temperature. For the assays involving 97, sequential measurements of the filtered light emissions were made at 460 nm (80 nm bandpass) and >610 nm (long-pass), and the raw BRET ratios were calculated by dividing the >610 nm emissions by the 460 nm emissions. For the assays involving 98, the measurements were made at 475 nm (30 nm bandpass) and 535 nm (30 nm bandpass), and the raw BRET ratios were calculated by dividing the 535 nm emissions by the 475 nm emissions.
The total and nonspecific saturation binding curves were fitted simultaneously using eq 2: [drawing 7] 2 where Bmax is the maximum specific BRET signal, [b] is the nanomolar concentration of the fluorescent ligand, Kd is the equilibrium dissociation constant in nanomolar, M is the slope of the nonspecific-binding component, and C is the intercept with the Y-axis. The pKd is −logKd.

hP2Y2 = tested on: hP2Y2; set-up: method as in PMID 8564228; settings: endogenous agonists; cited from earlier work
[3] = 10 μM fluorescent ligand, rightward shift of agonist dose–response curve, hP2Y2R-1321N1 cells, read-out: pKb (converted)

In the case of `O=C(CCCCCNC(=O)COc1ccc(/C=C/C2=[N+]3C(=Cc4ccc(-c5cccs5)n4[B-]3(F)F)C=C2)cc1)NCCNC(=O)CCNc1nc2c(s1)C=Cc1cc(Cl)ccc1C2c1cn(Cc2nc(C(=O)Nc3nnn[nH]3)cs2)c(=O)[nH]c1=S` (centres unmarked) [Example 97, (E)-2-((5-(7-Chloro-2-((3-((2-(6-(2-(4-(2-(5,5-difluoro-7-(thiophen-2-yl)-5H-4λ^4,5λ^4-dipyrrolo[1,2-c:2′,1′-f][1,3,2]diazaborinin-3-yl)vinyl)phenoxy)acetamido)hexanamido)ethyl)amino)-3-oxopropyl)amino)-4H-benzo[5,6]cyclohepta[1,2-d]thiazol-4-yl)-2-oxo-4-thioxo-3,4-dihydropyrimidin-1(2H)-yl)methyl)-N-(1H-tetrazol-5-yl)thiazole-4-carboxamide], the “membrane-specific fluorescence after pretreatment with 1” value (hP2Y2R [1]) was “substantially reduced”, the “confocal imaging: fluorescence localisation” value (hP2Y2R [1]) was “localized membrane fluorescence and very little intracellular fluorescence” and the Kb (hP2Y2R [2]; [3]) was 2040 nM.
For “(E)-N1-(2-(6-(2-(4-(2-(5,5-Difluoro-7-(thiophen-2-yl)-5H-4λ^4,5λ^4-dipyrrolo[1,2-c:2′,1′-f][1,3,2]diazaborinin-3-yl)vinyl)phenoxy)acetamido)hexanamido)ethyl)-5-((5-(2,8-dimethyl-5H-dibenzo[a,d][7]annulen-5-yl)-2-oxo-4-thioxo-3,4-dihydropyrimidin-1(2H)-yl)methyl)-N3-(1H-tetrazol-5-yl)isophthalamide [Example 67]”, the “NanoBRET pKd” value (NLuc-P2Y2R) was 5.78 ± 0.18 (3).
With `Cc1cc(C)n2c1C=C1C=CC(CCC(=O)NCCCCCC(=O)NCCOCCOCCNC(=O)CCNc3nc4c(s3)C=Cc3cc(Cl)ccc3C4c3cn(C)c(=O)[nH]c3=S)=[N+]1[B-]2(F)F` (centres unmarked) [Example 87, N-(2-(2-(2-(3-((7-Chloro-4-(1-methyl-2-oxo-4-thioxo-1,2,3,4-tetrahydropyrimidin-5-yl)-4H-benzo[5,6]cyclohepta[1,2-d]thiazol-2-yl)amino)propanamido)ethoxy)ethoxy)ethyl)-6-(3-(5,5-difluoro-7,9-dimethyl-5H-4λ^4,5λ^4-dipyrrolo[1,2-c:2′,1′-f][1,3,2]diazaborinin-3-yl)propanamido)hexanamide] the “specific NanoBRET signal” value (NLuc-P2Y2R) was “largest specific NanoBRET signals”.
In the case of `CC1=CC(C)=[N+]2C1=Cc1ccc(CCC(=O)NCCCCCC(=O)NCCNC(=O)CCNc3nc4c(s3)C=Cc3cc(Cl)ccc3C4c3cn(Cc4nc(C(=O)Nc5nnn[nH]5)cs4)c(=O)[nH]c3=S)n1[B-]2(F)F` (centres unmarked) [Example 98, (E)-2-((5-(7-Chloro-2-((3-((2-(6-(3-(5,5-difluoro-7,9-dimethyl-5H-5λ^4,6λ^4-dipyrrolo[1,2-c:2′,1′-f][1,3,2]diazaborinin-3-yl)propanamido)hexanamido)ethyl)amino)-3-oxopropyl)amino)-4H-benzo[5,6]cyclohepta[1,2-d]thiazol-4-yl)-2-oxo-4-thioxo-3,4-dihydropyrimidin-1(2H)-yl)methyl)-N-(1H-tetrazol-5-yl)thiazole-4-carboxamide], the Kd (NLuc-P2Y2R; Table 6, read-out: NanoBRET pKd (converted)) was 479 nM, the “membrane-specific fluorescence after pretreatment with 1” value (hP2Y2R [1]) was “substantially reduced” and the “confocal imaging: fluorescence localisation” value (hP2Y2R [1]) was “localized membrane fluorescence and very little intracellular fluorescence”. It also gave a Kb (hP2Y2R [2]; [3]) of 1350 nM.
In the case of `Nc1ncnc2c1ncn2[C@@H]1O[C@H](COP(=O)(O)OP(=O)(O)OP(=O)(O)O)[C@@H](O)[C@H]1O` [ATP, adenosine-5′-triphosphate], the pEC50 (hP2Y2) is given as 6.64.
For `O=c1ccn([C@@H]2O[C@H](COP(=O)(O)OP(=O)(O)OP(=O)(O)O)[C@@H](O)[C@H]2O)c(=O)[nH]1` [UTP, uridine-5′-triphosphate], the pEC50 (hP2Y2) is listed as 6.85.
In the case of `Cc1cc(C)n2c1C=C1C=CC(CCC(=O)NCCCCCC(=O)NCCNC(=O)CCNc3nc4c(s3)C=Cc3cc(Cl)ccc3C4c3cn(C)c(=O)[nH]c3=S)=[N+]1[B-]2(F)F` (centres unmarked) [Example 86, N-(2-(3-((7-Chloro-4-(1-methyl-2-oxo-4-thioxo-1,2,3,4-tetrahydropyrimidin-5-yl)-4H-benzo[5,6]cyclohepta[1,2-d]thiazol-2-yl)amino)propanamido)ethyl)-6-(3-(5,5-difluoro-7,9-dimethyl-5H-4λ^4,5λ^4-dipyrrolo[1,2-c:2′,1′-f][1,3,2]diazaborinin-3-yl)propanamido)hexanamide], the “specific NanoBRET signal” value (NLuc-P2Y2R) was “largest specific NanoBRET signals” and the Kb (hP2Y2R [2]; Table 7, Gaddum equation, shift of agonist dose–response curve by a single antagonist concentration, mean ± SEM, read-out: pKb Ca2+ mobilization (converted)) was 501 nM.
For “(E)-N1-(18-(4-(2-(5,5-Difluoro-7-(thiophen-2-yl)-5H-4λ^4,5λ^4-dipyrrolo[1,2-c:2′,1′-f][1,3,2]diazaborinin-3-yl)vinyl)phenoxy)-10,17-dioxo-3,6-dioxa-9,16-diazaoctadecyl)-5-((5-(2,8-dimethyl-5H-dibenzo[a,d][7]annulen-5-yl)-2-oxo-4-thioxo-3,4-dihydropyrimidin-1(2H)-yl)methyl)-N3-(1H-tetrazol-5-yl)isophthalamide [Example 69]”, the “NanoBRET pKd” value (NLuc-P2Y2R) was 6.07 ± 0.15 (3).
In the case of `Cc1cc(C)n2c1C=C1C=CC(CCC(=O)NCCNC(=O)CCNc3nc4c(s3)C=Cc3cc(Cl)ccc3C4c3cn(C)c(=O)[nH]c3=S)=[N+]1[B-]2(F)F` (centres unmarked) [Example 85, 3-((7-Chloro-4-(1-methyl-2-oxo-4-thioxo-1,2,3,4-tetrahydropyrimidin-5-yl)-4H-benzo[5,6]cyclohepta[1,2-d]thiazol-2-yl)amino)-N-(2-(3-(5,5-difluoro-7,9-dimethyl-5H-4λ^4,5λ^4-dipyrrolo[1,2-c:2′,1′-f][1,3,2]diazaborinin-3-yl)propanamido)ethyl)propanamide], the “specific NanoBRET signal” value (NLuc-P2Y2R) was “largest specific NanoBRET signals”.
In the case of `Cn1cc(C2c3ccc(Cl)cc3C=Cc3sc(NCCC(=O)NCCOCCOCCNC(=O)CCCCCNC(=O)COc4ccc(/C=C/C5=[N+]6C(=Cc7ccc(-c8cccs8)n7[B-]6(F)F)C=C5)cc4)nc32)c(=S)[nH]c1=O` (centres unmarked) [Example 80, (E)-N-(2-(2-(2-(3-((7-Chloro-4-(1-methyl-2-oxo-4-thioxo-1,2,3,4-tetrahydropyrimidin-5-yl)-4H-benzo[5,6]cyclohepta[1,2-d]thiazol-2-yl)amino)propanamido)ethoxy)ethoxy)ethyl)-6-(2-(4-(2-(5,5-difluoro-7-(thiophen-2-yl)-5H-4λ^4,5λ^4-dipyrrolo[1,2-c:2′,1′-f][1,3,2]diazaborinin-3-yl)vinyl)phenoxy)acetamido)hexanamide], the Kd (NLuc-P2Y2R; Table 5, read-out: pKd (converted)) was 5130 nM and the “specific NanoBRET signal” value (NLuc-P2Y2R) was “largest specific NanoBRET signals”.
